# Reference: patent US20240247080A1, “GLP1/GIP/NPY2 RECEPTOR TRIPLE AGONISTS” (Boehringer Ingelheim International GmbH, priority 2022, published 2024)
# Read-outs that look alike come from different tables or passages of the source. Starred links: 1 amine or outer side, 2 acyl side, 3 side chain; linkers in the order of their positions; H or OH if unused. Non-standard residues stand in square brackets, D forms with d. Groups on a side chain read outwards from the residue. No end group written: not given here. *: point of attachment. C20 diacid = O=C(O)CCCCCCCCCCCCCCCCCCC(=O)*; γGlu = O=C(O)[C@H](CCC(=O)[*:2])N[*:1]; εLys = N[C@@H](CCCCN[*:1])C(=O)[*:2]; Aib = CC(C)(N)C(=O)O
# Legend:
# [1] = target: T1, hGLP1R (Homo sapiens, UniProt P43220); assay: hGLP1R CreLuc reporter gene assay in 0.5% and 100% plasma; type: cell-based; details: CreLuc reporter gene assay, 0.5% human plasma; read-out: hGLP1R 0.5% hP
# T1 construct: expressed in transfected cells; host or cells: HEK-293 cells carrying a CRE-luciferase reporter gene
# T1 sequence (P43220 24-463): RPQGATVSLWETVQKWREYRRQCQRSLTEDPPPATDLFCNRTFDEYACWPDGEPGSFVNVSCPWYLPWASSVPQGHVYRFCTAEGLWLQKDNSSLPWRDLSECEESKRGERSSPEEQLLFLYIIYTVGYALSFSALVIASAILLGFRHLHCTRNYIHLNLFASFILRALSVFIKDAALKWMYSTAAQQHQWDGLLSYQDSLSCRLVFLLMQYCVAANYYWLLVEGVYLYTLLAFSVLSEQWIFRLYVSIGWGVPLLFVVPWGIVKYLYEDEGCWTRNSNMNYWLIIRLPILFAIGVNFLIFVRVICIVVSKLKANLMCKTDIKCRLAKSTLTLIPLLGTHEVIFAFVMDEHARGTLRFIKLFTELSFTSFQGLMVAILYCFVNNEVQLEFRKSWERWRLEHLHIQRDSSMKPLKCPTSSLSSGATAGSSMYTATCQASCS
# Outline: (§1)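 HEK-293 cells co-expressing GLP-1 or NPY2 receptor and CHO cells expressing GIP receptor, each carrying a CRE-driven luciferase reporter, were stimulated with peptides for 4 hours at 37 °C. Luminescence was read after Bright-Glo addition. EC50 came from 8-point, four-decade curves fitted by variable-slope non-linear regression.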
# [2] = target: T2, hGIPR (Homo sapiens, UniProt P48546); assay: hGIPR CreLuc reporter gene assay in 0.5% and 100% plasma; type: cell-based; details: CreLuc reporter gene assay
# T2 construct: expressed in transfected cells; host or cells: CHO cells carrying a CRE-luciferase reporter gene
# T2 sequence (P48546 22-466): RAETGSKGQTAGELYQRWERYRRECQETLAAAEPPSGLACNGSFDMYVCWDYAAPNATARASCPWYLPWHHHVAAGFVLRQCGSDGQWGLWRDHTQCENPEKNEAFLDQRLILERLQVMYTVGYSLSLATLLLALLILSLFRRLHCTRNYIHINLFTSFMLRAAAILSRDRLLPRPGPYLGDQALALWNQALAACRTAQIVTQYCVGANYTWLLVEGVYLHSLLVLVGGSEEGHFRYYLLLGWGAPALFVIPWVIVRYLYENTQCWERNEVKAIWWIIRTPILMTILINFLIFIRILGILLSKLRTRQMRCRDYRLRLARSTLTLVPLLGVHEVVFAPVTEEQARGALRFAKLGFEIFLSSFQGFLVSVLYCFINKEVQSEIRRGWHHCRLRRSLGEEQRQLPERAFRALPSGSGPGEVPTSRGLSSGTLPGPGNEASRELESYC
# Outline: as §1
# [3] = target: T3, hNPY2R (Homo sapiens, UniProt P49146); assay: hNPY2R CreLuc reporter gene assay in 0.5% and 100% plasma; type: cell-based; details: CreLuc reporter gene assay
# T3 construct: expressed in transfected cells; host or cells: HEK-293 cells carrying a CRE-luciferase reporter gene
# T3 sequence (P49146 1-381): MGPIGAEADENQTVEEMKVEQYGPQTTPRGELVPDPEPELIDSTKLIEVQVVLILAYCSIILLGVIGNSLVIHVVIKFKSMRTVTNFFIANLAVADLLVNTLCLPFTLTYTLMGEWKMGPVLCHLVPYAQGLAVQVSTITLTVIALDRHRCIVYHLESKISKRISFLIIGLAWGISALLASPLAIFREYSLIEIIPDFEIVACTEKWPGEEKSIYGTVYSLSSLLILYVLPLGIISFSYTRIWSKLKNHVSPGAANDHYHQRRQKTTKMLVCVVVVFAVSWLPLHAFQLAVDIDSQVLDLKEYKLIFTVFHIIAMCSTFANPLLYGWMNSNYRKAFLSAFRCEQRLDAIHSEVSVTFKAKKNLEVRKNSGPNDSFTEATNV
# Outline: as §1
# [4] = Mouse PK after intravenous application; type: in vivo; details: plasma, mean residence time, intravenous 30-60 nmol/kg, male NMRI mice
# Experimental: Pharmacokinetic parameters of the peptides were determined after intravenous application to NMRI mice. Male NMRI mice were obtained from Janvier Laboratories (France) weighing 30 to 40 g. Mice were housed in standard cages with a 12:12 hour light:dark cycle and standard food and water access ad libitum. Each test peptide was dissolved in 50 mM phosphate buffer (pH 7.4)/3.5% mannitol. Intravenous application of 30-60 nmol/kg was performed via the tail vein. Serial blood samples from conscious mice were collected from the saphenous vein in EDTA-containing vials at different time points up to 56 hours post-dosing. Subsequently, plasma was prepared by centrifugation for 5 min at approximately 5000 rpm and stored at −20° C. until quantification of the peptide plasma levels by liquid chromatography mass spectrometry (LC-MS). Individual plasma concentration—time profiles were analysed by a non-compartmental approach and the resulting pharmacokinetic parameters were calculated.
# [5] = 0.5% human plasma, read-out: hGIPR 0.5% hP
# [6] = 100% human plasma, read-out: hGIPR 100% hP
# [7] = 0.5% human plasma, read-out: hNPY2R 0.5% hP
EC50 [1] [nM],"EC50 [2, 5] [nM]","EC50 [2, 6] [nM]","EC50 ([3]; 100% human plasma, read-out: hNPY2R 100% hP) [nM]",MRT [4] [h],"EC50 [3, 7] [nM]",Molecule
0.1,0.17,1.11,21,6.7,–,"CC[C@H](C)[C@H](NC(=O)[C@H](CC(C)C)NC(=O)[C@H](Cc1c[nH]c2ccccc12)NC(=O)[C@H](CCC(=O)O)NC(=O)[C@@H](NC(=O)[C@H](Cc1ccccc1)NC(=O)[C@H](C)NC(=O)C(C)(C)NC(=O)[C@H](CCC(N)=O)NC(=O)[C@H](C)NC(=O)[C@H](CCC(N)=O)NC(=O)[C@H](CCCCN)NC(=O)[C@H](CCC(=O)O)NC(=O)[C@H](CC(C)C)NC(=O)C(C)(C)NC(=O)[C@@H](NC(=O)[C@H](CO)NC(=O)[C@H](Cc1ccc(O)cc1)NC(=O)[C@H](CC(=O)O)NC(=O)[C@H](CO)NC(=O)[C@@H](NC(=O)[C@H](Cc1ccccc1)NC(=O)[C@@H](NC(=O)CNC(=O)[C@H](CCC(=O)O)NC(=O)C(C)(C)NC(=O)[C@@H](N)Cc1ccc(O)cc1)[C@@H](C)O)[C@@H](C)O)[C@@H](C)CC)C(C)C)C(=O)N[C@@H](CCCCNC(=O)[C@@H](N)CCCCNC(=O)CC[C@H](NC(=O)CC[C@H](NC(=O)CC[C@H](NC(=O)CC[C@H](NC(=O)CC[C@H](NC(=O)CC[C@H](NC(=O)CCCCCCCCCCCCCCCCCCC(=O)O)C(=O)O)C(=O)O)C(=O)O)C(=O)O)C(=O)O)C(=O)O)C(=O)NCC(=O)NCC(=O)N1CCC[C@H]1C(=O)N[C@@H](CO)C(=O)N[C@@H](CO)C(=O)NCC(=O)N[C@H](C(=O)N[C@@H](CO)C(=O)N[C@H](C(=O)N[C@@H](CCCNC(=N)N)C(=O)N[C@@H](Cc1c[nH]cn1)C(=O)N[C@@H](Cc1ccc(O)cc1)C(=O)N[C@@H](Cc1ccc(O)cc1)C(=O)N[C@@H](CC(N)=O)C(=O)N[C@@H](Cc1c[nH]c2ccccc12)C(=O)N[C@@H](CC(C)C)C(=O)N[C@H](C(=O)N[C@@H](CCCNC(=N)N)C(=O)N[C@@H](CCC(N)=O)C(=O)N[C@@H](CCCNC(=N)N)C(=O)N[C@@H](Cc1ccc(O)cc1)C(N)=O)[C@@H](C)O)[C@@H](C)CC)C(C)C [Compound 27, Y-Aib-E-G-T-F-T-S-D-Y-S-I-Aib-L-E-K-Q-A-Q-Aib-A-F-V-E-W-L-I-K(1,3)-GGPSSGVSIRHYYNWLTRQRY-NH2.C20DA-gGlu-gGlu-gGlu-gGlu-gGlu-gGlu-eLys(1,2)]"
0.15,0.22,1.11,–,12.6,10.3,"CC[C@H](C)[C@H](NC(=O)[C@H](CC(C)C)NC(=O)[C@H](Cc1c[nH]c2ccccc12)NC(=O)[C@H](CCC(=O)O)NC(=O)[C@@H](NC(=O)[C@H](Cc1ccccc1)NC(=O)[C@H](C)NC(=O)C(C)(C)NC(=O)[C@H](CCC(N)=O)NC(=O)[C@H](C)NC(=O)[C@H](CCC(N)=O)NC(=O)[C@H](CCCCN)NC(=O)[C@H](CCC(=O)O)NC(=O)[C@H](CC(C)C)NC(=O)C(C)(C)NC(=O)[C@@H](NC(=O)[C@H](CO)NC(=O)[C@H](Cc1ccc(O)cc1)NC(=O)[C@H](CC(=O)O)NC(=O)[C@H](CO)NC(=O)[C@@H](NC(=O)[C@H](Cc1ccccc1)NC(=O)[C@@H](NC(=O)CNC(=O)[C@H](CCC(=O)O)NC(=O)C(C)(C)NC(=O)[C@@H](N)Cc1ccc(O)cc1)[C@@H](C)O)[C@@H](C)O)[C@@H](C)CC)C(C)C)C(=O)N[C@@H](CCCCNC(=O)[C@@H](N)CCCCNC(=O)CC[C@H](NC(=O)CC[C@H](NC(=O)CC[C@H](NC(=O)CC[C@H](NC(=O)CC[C@H](NC(=O)CC[C@H](NC(=O)CCCCCCCCCCCCCCCCCCC(=O)O)C(=O)O)C(=O)O)C(=O)O)C(=O)O)C(=O)O)C(=O)O)C(=O)NCC(=O)NCC(=O)N1CCC[C@H]1C(=O)N[C@@H](CO)C(=O)N[C@@H](CO)C(=O)NCC(=O)N[C@@H](C)C(=O)N[C@@H](CO)C(=O)N[C@@H](CC(C)C)C(=O)N[C@@H](CCCNC(=N)N)C(=O)N[C@@H](Cc1c[nH]cn1)C(=O)N[C@@H](Cc1ccc(O)cc1)C(=O)N[C@@H](Cc1ccc(O)cc1)C(=O)N[C@@H](CC(N)=O)C(=O)N[C@@H](Cc1c[nH]c2ccccc12)C(=O)N[C@@H](CC(C)C)C(=O)N[C@H](C(=O)N[C@@H](CCCNC(=N)N)C(=O)N(C)[C@@H](CCC(N)=O)C(=O)N[C@@H](CCCNC(=N)N)C(=O)N[C@@H](Cc1ccc(O)cc1)C(N)=O)[C@@H](C)O [Compound 85, Y-Aib-E-G-T-F-T-S-D-Y-S-I-Aib-L-E-K-Q-A-Q-Aib-A-F-V-E-W-L-I-K(1,3)-G-G-P-S-S-G-A-S-L-R-H-Y-Y-N-W-L-T-R-NMeQ-R-Y-NH2.C20DA-gGlu-gGlu-gGlu-gGlu-gGlu-gGlu-eLys(1,2)]"
0.12,0.28,1.23,–,13,14.9,"Y[Aib]EGTFTSDYSI[Aib]LEKQAQ[Aib]AFVEWLIK([εLys-γGlu-γGlu-γGlu-γGlu-γGlu-γGlu-γGlu-C20 diacid])GGPSSGASLRHYYNWLTRQRY-NH2 [Compound 225, Y-Aib-E-G-T-F-T-S-D-Y-S-I-Aib-L-E-K-Q-A-Q-Aib-A-F-V-E-W-L-I-K(1,3)-GGPSSGASLRHYYNWLTRQRY-NH2.C20DA-gGlu-gGlu-gGlu-gGlu-gGlu-gGlu-gGlu-eLys(1,2)]"
0.34,0.46,1.23,–,11,17.3,"CC[C@H](C)[C@H](NC(=O)[C@H](CC(C)C)NC(=O)[C@H](Cc1c[nH]c2ccccc12)NC(=O)[C@H](CCC(=O)O)NC(=O)[C@@H](NC(=O)[C@H](Cc1ccccc1)NC(=O)[C@H](CCC(=O)O)NC(=O)C(C)(C)NC(=O)[C@H](CCC(N)=O)NC(=O)[C@H](C)NC(=O)[C@H](CCC(N)=O)NC(=O)[C@H](CCCCN)NC(=O)[C@H](CCC(=O)O)NC(=O)[C@H](CC(C)C)NC(=O)C(C)(C)NC(=O)[C@@H](NC(=O)[C@H](CO)NC(=O)[C@H](Cc1ccc(O)cc1)NC(=O)[C@H](CC(=O)O)NC(=O)[C@H](CO)NC(=O)[C@@H](NC(=O)[C@H](Cc1ccccc1)NC(=O)[C@@H](NC(=O)CNC(=O)[C@H](CCC(=O)O)NC(=O)C(C)(C)NC(=O)[C@@H](N)Cc1ccc(O)cc1)[C@@H](C)O)[C@@H](C)O)[C@@H](C)CC)C(C)C)C(=O)N[C@@H](CCCCNC(=O)[C@@H](N)CCCCNC(=O)CC[C@H](NC(=O)CC[C@H](NC(=O)CC[C@H](NC(=O)CC[C@H](NC(=O)CC[C@H](NC(=O)CC[C@H](NC(=O)CCCCCCCCCCCCCCCCC(=O)O)C(=O)O)C(=O)O)C(=O)O)C(=O)O)C(=O)O)C(=O)O)C(=O)NCC(=O)NCC(=O)N1CCC[C@H]1C(=O)N[C@@H](CO)C(=O)N[C@@H](CCC(=O)O)C(=O)NCC(=O)N[C@@H](C)C(=O)N[C@@H](CO)C(=O)N[C@@H](CC(C)C)C(=O)N[C@@H](CCCNC(=N)N)C(=O)N[C@@H](Cc1c[nH]cn1)C(=O)N[C@@H](Cc1ccc(O)cc1)C(=O)N[C@@H](Cc1ccc(O)cc1)C(=O)N[C@@H](CC(N)=O)C(=O)N[C@@H](Cc1c[nH]c2ccccc12)C(=O)N[C@@H](CC(C)C)C(=O)N[C@H](C(=O)N[C@@H](CCCNC(=N)N)C(=O)N[C@@H](CCC(N)=O)C(=O)N[C@@H](CCCNC(=N)N)C(=O)N[C@@H](Cc1ccc(O)cc1)C(N)=O)[C@@H](C)O [Compound 255, Y-Aib-E-G-T-F-T-S-D-Y-S-I-Aib-L-E-K-Q-A-Q-Aib-E-F-V-E-W-L-I-K(1,3)-GGPSEGASLRHYYNWLTRQRY-NH2.C18DA-gGlu-gGlu-gGlu-gGlu-gGlu-gGlu-eLys(1,2)]"
